{
  "source": "patent US12357701B2",
  "about": "“Anti-HER2 biparatopic antibody-drug conjugates and methods of use” (Zymeworks BC Inc., priority 2018, dated 2025)",
  "type_in_all_cases": "in vivo, cynomolgus monkeys",
  "key": {"[1]": {"assay": "Non-GLP repeat-dose toxicity study of v21252", "conditions": "after repeat administration of v21252 9 or 12 mg/kg; all below limit of quantitation except three animals", "description": "(§1) All animals were evaluated for changes in clinical signs, food consumption, body weight, blood pressure, ECGs, respiration rates (visual), clinical pathology (hematology, clinical chemistry, coagulation, urinalysis), organ weights, and macroscopic/microscopic examination of tissues."}, "[2]": {"assay": "GLP toxicity study of v21252", "description": "as §1"}, "[3]": {"assay": "Single-dose pharmacokinetics/tolerability study of v17597 and v21252", "conditions": "all below LLOQ", "description": "General tolerability was assessed with clinical observations, body weight, food consumption, and clinical pathology (hematology and clinical chemistry).\nSerum concentrations of total antibody were analyzed using an Electrochemiluminescence assay with Meso Scale Discovery platform (ECL/MSD) with anti-pertuzumab antibody as the capture agent and anti-trastuzumab sulfo-TAG as the detection agent.\nSerum samples were precipitated with acetonitrile/methanol (50:50, v/v) and supernatants were analyzed. The liquid chromatography system used was a reverse phase column with a gradient flow consisting of water/acetic acid (100/0.05, v/v) and acetonitrile.\nNon-compartmental analysis of the serum sample bioanalytical results was used to derive PK parameters (maximum serum concentration [Cmax], terminal half-life [T1/2], clearance [CL] and apparent volume of distribution [Vss])."}},
  "data": [
    {"smiles": "CCC(C)[C@@H]([C@@H](CC(=O)N1CCC[C@H]1[C@H](OC)[C@@H](C)C(=O)NS(=O)(=O)c1ccc(N)cc1)OC)N(C)C(=O)[C@@H](NC(=O)[C@H](C(C)C)N(C)C)C(C)C", "note": "(stereo in doubt) [Compound 9, (S)—N-((3R,4S,5R)-1-((S)-2-((1R,2R)-3-((4-aminophenyl)sulfonamido)-1-methoxy-2-methyl-3-oxopropyl)pyrrolidin-1-yl)-3-methoxy-5-methyl-1-oxoheptan-4-yl)-2-((S)-2-(dimethylamino)-3-methylbutanamido)-N,3-dimethylbutanamide]", "values": [
      {"measurement": "payload (Compound 9) serum concentration", "setting": "[1]", "result": "< 0.500", "unit": "ng/mL"},
      {"measurement": "toxin (Compound 9) serum concentration", "setting": "[2]; after repeat administrations of v21252, most concentrations below limit of quantitation", "result": "< 0.500", "unit": "ng/mL"},
      {"measurement": "AUC(0-t)", "setting": "[2]; male, cynomolgus monkey, serum, iv, 18 mg/kg", "result": 125, "unit": "ng·h/mL"},
      {"measurement": "toxin (Compound 9) serum concentration", "setting": "[3]; after single dose of v17597 (3, 6 or 9 mg/kg)", "result": "< 5.00", "unit": "ng/mL"},
      {"measurement": "toxin (Compound 9) serum concentration", "setting": "[3]; after single dose of v21252 (9 or 12 mg/kg)", "result": "< 5.00", "unit": "ng/mL"}
    ]}
  ]
}
